Tests used:
A-431 [1] = experiment: Antiproliferative activity against human A431 cells assessed as reduction in cell viability after 24 hrs by MTT assay; format: functional, cell-based; settings: A-431, 24 h
[2] = target: Epidermal growth factor receptor (Homo sapiens, UniProt P00533, L858R/T790M); experiment: Inhibition of human recombinant GST-tagged EGFR L858R/T790M mutant expressed in baculovirus expression system reduction in phosphorylation using tyrosine 4 peptide as substrate after 60 mins FRET based Z'-LYTE assay
NCI-H460 [3] = experiment: Antiproliferative activity against human H460 cells assessed as reduction in cell viability after 24 hrs by MTT assay; format: functional, cell-based; settings: NCI-H460, 24 h
[4] = target: Epidermal growth factor receptor (Homo sapiens, UniProt P00533, L858R); experiment: Inhibition of human recombinant GST-tagged EGFR L858R mutant expressed in baculovirus expression system reduction in phosphorylation using tyrosine 4 peptide as substrate after 60 mins FRET based Z'-LYTE assay
A549 [5] = experiment: cells; settings: Homo sapiens, A549, 24 h
Description: Antiproliferative activity against human A549 cells assessed as reduction in cell viability after 24 hrs by MTT assay

[6] = target: Hepatocyte growth factor receptor (Homo sapiens, UniProt P08581); experiment: Inhibition of human recombinant His-tagged cMET expressed in baculovirus expression system reduction in phosphorylation using tyrosine 6 peptide as substrate after 60 mins FRET based Z'-LYTE assay
A549 [7] = experiment: Antiproliferative activity against human A549 cells assessed as cell viability at 40 uM after 48 hrs by MTT assay relative to control; format: functional; settings: A549, 48 h, read-out: Activity
NCI-H460 [8] = experiment: Antiproliferative activity against human H460 cells assessed as cell viability at 40 uM after 48 hrs by MTT assay relative to control; format: functional; settings: NCI-H460, 48 h, read-out: Activity
A-431 [9] = experiment: Antiproliferative activity against human A431 cells assessed as cell viability at 40 uM after 48 hrs by MTT assay relative to control; format: functional; settings: A-431, 48 h, read-out: Activity
A549 [10] = experiment: Antiproliferative activity against human A549 cells assessed as cell viability at 30 uM after 48 hrs by MTT assay relative to control; format: functional; settings: A549, 48 h, read-out: Activity
NCI-H460 [11] = experiment: Antiproliferative activity against human H460 cells assessed as cell viability at 20 uM after 48 hrs by MTT assay relative to control; format: functional; settings: NCI-H460, 48 h, read-out: Activity
NCI-H460 [12] = experiment: Antiproliferative activity against human H460 cells assessed as cell viability at 30 uM after 48 hrs by MTT assay relative to control; format: functional; settings: NCI-H460, 48 h, read-out: Activity
A-431 [13] = experiment: Antiproliferative activity against human A431 cells assessed as cell viability at 30 uM after 48 hrs by MTT assay relative to control; format: functional; settings: A-431, 48 h, read-out: Activity
A549 [14] = experiment: Antiproliferative activity against human A549 cells assessed as cell viability at 20 uM after 48 hrs by MTT assay relative to control; format: functional; settings: A549, 48 h, read-out: Activity
A-431 [15] = experiment: Antiproliferative activity against human A431 cells assessed as cell viability at 20 uM after 48 hrs by MTT assay relative to control; format: functional; settings: A-431, 48 h, read-out: Activity
A-431 [16] = experiment: Antiproliferative activity against human A431 cells assessed as cell viability at 10 uM after 48 hrs by MTT assay relative to control; format: functional; settings: A-431, 48 h, read-out: Activity
NCI-H460 [17] = experiment: Antiproliferative activity against human H460 cells assessed as cell viability at 10 uM after 48 hrs by MTT assay relative to control; format: functional; settings: NCI-H460, 48 h, read-out: Activity
A549 [18] = experiment: Antiproliferative activity against human A549 cells assessed as cell viability at 10 uM after 48 hrs by MTT assay relative to control; format: functional; settings: A549, 48 h, read-out: Activity

Chain of Hepatocyte growth factor receptor (P08581 whole entry): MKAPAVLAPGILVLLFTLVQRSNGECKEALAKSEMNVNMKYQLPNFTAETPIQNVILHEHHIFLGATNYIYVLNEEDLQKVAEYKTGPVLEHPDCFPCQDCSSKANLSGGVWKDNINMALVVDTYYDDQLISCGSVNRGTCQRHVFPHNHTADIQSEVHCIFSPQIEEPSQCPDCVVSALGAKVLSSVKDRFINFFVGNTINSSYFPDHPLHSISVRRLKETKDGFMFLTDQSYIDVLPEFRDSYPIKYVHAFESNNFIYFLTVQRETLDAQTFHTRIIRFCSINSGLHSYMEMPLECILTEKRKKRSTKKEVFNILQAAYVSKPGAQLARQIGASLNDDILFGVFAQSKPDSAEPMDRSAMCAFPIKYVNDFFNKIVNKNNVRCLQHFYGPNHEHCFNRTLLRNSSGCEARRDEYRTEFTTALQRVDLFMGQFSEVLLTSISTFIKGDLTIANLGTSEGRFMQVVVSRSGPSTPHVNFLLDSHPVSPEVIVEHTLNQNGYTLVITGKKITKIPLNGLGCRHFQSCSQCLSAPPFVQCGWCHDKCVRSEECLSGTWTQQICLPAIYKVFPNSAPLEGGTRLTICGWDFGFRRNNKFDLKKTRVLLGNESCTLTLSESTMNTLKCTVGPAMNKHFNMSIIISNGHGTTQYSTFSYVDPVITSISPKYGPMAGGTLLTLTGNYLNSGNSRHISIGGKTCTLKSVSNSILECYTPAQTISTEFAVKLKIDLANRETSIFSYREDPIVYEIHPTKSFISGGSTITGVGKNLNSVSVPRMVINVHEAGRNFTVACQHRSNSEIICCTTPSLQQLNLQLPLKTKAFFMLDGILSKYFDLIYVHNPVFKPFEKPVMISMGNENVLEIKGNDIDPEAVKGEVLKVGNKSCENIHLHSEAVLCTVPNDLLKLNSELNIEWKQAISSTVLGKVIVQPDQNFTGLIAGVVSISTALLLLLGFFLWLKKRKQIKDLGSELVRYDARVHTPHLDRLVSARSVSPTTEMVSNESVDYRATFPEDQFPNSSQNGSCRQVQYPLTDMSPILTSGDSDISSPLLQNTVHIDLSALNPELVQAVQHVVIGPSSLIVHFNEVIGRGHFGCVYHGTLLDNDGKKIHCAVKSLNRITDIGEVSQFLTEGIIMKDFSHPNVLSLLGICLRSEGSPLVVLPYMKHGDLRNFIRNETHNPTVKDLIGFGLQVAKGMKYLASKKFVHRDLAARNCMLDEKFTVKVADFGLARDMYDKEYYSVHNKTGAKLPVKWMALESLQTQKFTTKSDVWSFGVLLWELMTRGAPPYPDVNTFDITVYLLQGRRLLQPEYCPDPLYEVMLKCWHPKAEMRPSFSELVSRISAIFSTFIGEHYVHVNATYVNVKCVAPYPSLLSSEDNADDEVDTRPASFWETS
Chain of Epidermal growth factor receptor (Homo sapiens, UniProt P00533, L858R/T790M) (P00533 25-1210 T790M/L858R limits assumed): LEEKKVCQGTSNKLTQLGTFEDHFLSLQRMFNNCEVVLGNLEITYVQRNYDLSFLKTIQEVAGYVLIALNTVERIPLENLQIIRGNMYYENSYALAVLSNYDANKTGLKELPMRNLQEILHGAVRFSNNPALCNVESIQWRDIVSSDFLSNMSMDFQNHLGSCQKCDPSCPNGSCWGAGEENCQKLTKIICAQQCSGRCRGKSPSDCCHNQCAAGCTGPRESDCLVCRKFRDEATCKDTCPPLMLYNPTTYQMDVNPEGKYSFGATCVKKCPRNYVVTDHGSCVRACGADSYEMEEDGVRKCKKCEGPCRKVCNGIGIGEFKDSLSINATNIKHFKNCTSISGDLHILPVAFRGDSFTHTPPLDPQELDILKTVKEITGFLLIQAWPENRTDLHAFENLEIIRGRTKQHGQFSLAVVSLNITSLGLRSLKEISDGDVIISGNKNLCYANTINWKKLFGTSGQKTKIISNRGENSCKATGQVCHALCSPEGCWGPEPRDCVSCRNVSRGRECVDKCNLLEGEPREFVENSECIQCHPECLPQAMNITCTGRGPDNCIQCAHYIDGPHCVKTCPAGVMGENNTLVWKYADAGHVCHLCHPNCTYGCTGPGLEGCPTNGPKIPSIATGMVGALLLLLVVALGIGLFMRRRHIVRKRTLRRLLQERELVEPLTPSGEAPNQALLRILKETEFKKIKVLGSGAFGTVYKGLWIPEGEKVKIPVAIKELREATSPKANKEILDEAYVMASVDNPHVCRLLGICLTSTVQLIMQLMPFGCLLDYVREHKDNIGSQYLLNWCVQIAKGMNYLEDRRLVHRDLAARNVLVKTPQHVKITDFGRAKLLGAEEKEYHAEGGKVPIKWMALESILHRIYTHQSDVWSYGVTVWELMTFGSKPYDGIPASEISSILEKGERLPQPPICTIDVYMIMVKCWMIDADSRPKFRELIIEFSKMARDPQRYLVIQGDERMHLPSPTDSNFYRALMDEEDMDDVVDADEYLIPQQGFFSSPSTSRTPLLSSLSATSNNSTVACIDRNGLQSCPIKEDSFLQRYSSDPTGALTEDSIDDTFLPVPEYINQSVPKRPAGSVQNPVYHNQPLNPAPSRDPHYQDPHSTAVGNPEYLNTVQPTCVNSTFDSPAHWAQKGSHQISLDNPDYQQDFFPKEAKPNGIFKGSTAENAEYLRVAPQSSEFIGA
Chain of Epidermal growth factor receptor (Homo sapiens, UniProt P00533, L858R) (P00533 25-1210 L858R limits assumed): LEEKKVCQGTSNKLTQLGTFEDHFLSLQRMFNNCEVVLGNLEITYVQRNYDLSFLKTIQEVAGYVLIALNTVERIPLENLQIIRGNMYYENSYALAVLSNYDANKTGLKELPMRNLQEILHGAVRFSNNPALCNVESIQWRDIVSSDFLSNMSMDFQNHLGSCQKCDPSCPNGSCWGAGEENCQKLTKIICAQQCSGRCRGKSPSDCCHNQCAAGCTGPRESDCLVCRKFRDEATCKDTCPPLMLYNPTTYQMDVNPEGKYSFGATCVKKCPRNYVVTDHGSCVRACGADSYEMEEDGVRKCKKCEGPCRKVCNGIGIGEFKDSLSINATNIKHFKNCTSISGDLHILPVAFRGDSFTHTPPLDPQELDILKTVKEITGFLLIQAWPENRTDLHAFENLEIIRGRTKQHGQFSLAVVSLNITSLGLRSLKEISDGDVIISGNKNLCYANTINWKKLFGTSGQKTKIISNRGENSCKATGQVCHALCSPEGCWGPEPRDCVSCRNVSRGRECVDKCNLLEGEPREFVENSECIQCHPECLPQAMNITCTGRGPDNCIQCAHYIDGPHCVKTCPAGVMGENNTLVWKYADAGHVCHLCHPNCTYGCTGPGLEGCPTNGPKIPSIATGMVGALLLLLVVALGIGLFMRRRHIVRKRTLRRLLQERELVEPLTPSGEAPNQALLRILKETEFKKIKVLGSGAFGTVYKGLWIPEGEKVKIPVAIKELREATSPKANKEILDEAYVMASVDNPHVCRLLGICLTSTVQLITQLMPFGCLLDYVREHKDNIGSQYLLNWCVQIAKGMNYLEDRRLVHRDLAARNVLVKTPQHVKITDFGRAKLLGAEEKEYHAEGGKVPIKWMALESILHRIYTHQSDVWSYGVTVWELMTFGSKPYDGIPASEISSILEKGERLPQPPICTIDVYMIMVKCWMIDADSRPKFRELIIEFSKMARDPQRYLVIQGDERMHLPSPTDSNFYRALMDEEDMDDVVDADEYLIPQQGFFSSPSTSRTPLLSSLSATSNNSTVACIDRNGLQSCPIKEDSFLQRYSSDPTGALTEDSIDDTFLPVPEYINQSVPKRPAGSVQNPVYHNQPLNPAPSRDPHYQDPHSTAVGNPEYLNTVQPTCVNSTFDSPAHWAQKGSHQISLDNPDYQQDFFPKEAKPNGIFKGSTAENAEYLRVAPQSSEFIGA

| Compound | IC50 (A-431 [1]) [nM] | IC50 [2] [nM] | IC50 (NCI-H460 [3]) [nM] | IC50 [4] [nM] | IC50 (A549 [5]) [nM] | IC50 [6] [nM] | viability at 40 µM (A549 [7]) [%] | viability at 40 µM (NCI-H460 [8]) [%] | viability at 40 µM (A-431 [9]) [%] | viability at 30 µM (A549 [10]) [%] | viability at 20 µM (NCI-H460 [11]) [%] | viability at 30 µM (NCI-H460 [12]) [%] | viability at 30 µM (A-431 [13]) [%] | viability at 20 µM (A549 [14]) [%] | viability at 20 µM (A-431 [15]) [%] | viability at 10 µM (A-431 [16]) [%] | viability at 10 µM (NCI-H460 [17]) [%] | viability at 10 µM (A549 [18]) [%] |
| --- | --- | --- | --- | --- | --- | --- | --- | --- | --- | --- | --- | --- | --- | --- | --- | --- | --- | --- |
| Cc1cc(O)n2nc(SCc3cccc(Cl)c3)nc2n1 | > 40000 | 59 | > 80000 | 131 | > 80000 | 92 |  |  |  |  |  |  |  |  |  |  |  |  |
| Cc1cc(=O)n2nc(SCc3ccc(Cl)cc3)nc2[nH]1 | 32500 | 182 | 56500 | 54 | 61400 | 113 |  |  |  |  |  |  |  |  |  |  |  |  |
| Cc1cc(=O)n2nc(SCc3cccc(C(F)(F)F)c3)nc2[nH]1 | 21800 | 84 | 65800 | 81 | 72000 | 94 |  |  |  |  |  |  |  |  |  |  |  |  |
| Cc1cc(=O)n2nc(SCc3ccc(F)cc3)nc2[nH]1 | > 40000 | 56 | > 80000 | 52 | > 80000 | 203 |  |  |  |  |  |  |  |  |  |  |  |  |
| Cc1cc(=O)n2nc(SCc3ccc([N+](=O)[O-])cc3)nc2[nH]1 | > 40000 | 76 | > 80000 | 107 | > 80000 | 104 |  |  |  |  |  |  |  |  |  |  |  |  |
| Cc1cc(=O)n2nc(SCc3ccc(C(C)C)cc3)nc2[nH]1 | 17300 | 62 | 31800 | 80 | 35200 | 50 | 43.4 | 41.8 | 17.7 | 65.3 | 71.6 | 56 | 38.8 | 79.6 | 50.7 | 71.7 | 86.7 | 89.7 |
| Cc1ccc(CSc2nc3[nH]c(C)cc(=O)n3n2)cc1 | 15800 | 168 | 49900 | 311 | 50100 | 79 |  |  | 32.5 |  |  |  | 41.7 |  | 62.5 | 75.8 |  |  |
| Cc1cc(=O)n2nc(SCc3cccc([N+](=O)[O-])c3)nc2[nH]1 | > 40000 | 77 | > 80000 | 157 | > 80000 | 89 |  |  |  |  |  |  |  |  |  |  |  |  |
| Cc1cc(=O)n2nc(SCc3ccc(C(C)(C)C)cc3)nc2[nH]1 | 24400 |  | 59000 |  | 60500 | 65 |  |  |  |  |  |  |  |  |  |  |  |  |
| Cc1cc(=O)n2nc(SCc3ccc(Cl)cc3Cl)nc2[nH]1 | 18200 | 141 | 27200 | 141 | 34900 | 42 | 46.8 | 34.9 |  | 61.2 | 65.7 | 51 |  | 77 |  |  | 83.5 | 88.3 |

Reference: ChEMBL document CHEMBL4340550, “Structure based designing of triazolopyrimidone-based reversible inhibitors for kinases involved in NSCLC” (Bioorg Med Chem Lett, 2019)
